Experimental data: patent US20230094076A1, “COMBINATION THERAPY” (GlaxoSmithKline Intellectual Property Development Limited, priority 2016, published 2023)

Tests used:
PRMT6 = PRMT6 (Homo sapiens, UniProt Q96LA8); experiment: PRMT family radioactive assay; format: biochemical
[1] = system: arginine methylation (ADMA, MMA, SDMA) in Toledo cells; experiment: Western analysis of arginine methylation, time course; format: cell-based, human; conditions: 0.4 μM
Experimental: (B) Representative western blots of arginine methylation marks. Regions quantified are denoted by black bars on the right of the gel.
As predicted, ADMA methylation decreased while MMA increased upon compound exposure (FIG. 12). […] Given the detection of numerous substrates with varying kinetics, and variability of ADMA levels among DMSO-treated samples, both the full lane and a prominent 45 kDa band were characterized to assess ADMA. Increases in MMA were apparent by 24 hours and near maximal by 48 hours while decreases in the 45 kDa ADMA band required 72-96 hours to achieve maximal effect. Increases in SDMA were apparent after 48 hours of compound exposure and continued to increase through 120 hours, consistent with the potential switch from conversion of MMA to ADMA by Type I PRMTs to SDMA by Type II PRMTs (FIG. 12).

MOLM-13 = conditions: MOLM-13, AML subtype M5, 6-day
Experimental: (§1) The growth of all cell lines was evaluated over time across a wide range of seeding densities to identify conditions that permitted proliferation throughout the entire 6-day assay. Cells were plated at the optimal seeding density and after overnight incubation, a 20-point 2-fold titration of compound was added and plates were incubated for 6 days. A replicate plate of cells was harvested at the time of compound addition to quantify the starting number of cells (T0). Values obtained after the 6 day treatment were expressed as a function of the T0 value and plotted against compound concentration. The T0 value was normalized to 100% and represents the number of cells at the time of compound addition. The data were fit with a 4 parameter equation to generate a concentration response curve and the growth IC50 (gIC50) was determined. The gIC50 is the midpoint of the ‘growth window’, the difference between the number of cells at the time of compound addition (To) and the number of cells after 6 days (DMSO control). The growth-death assay can be used to quantify the net population change, clearly defining cell death (cytotoxicity) as fewer cells compared to the number at the time of compound addition (T0).

MDA-MB- = conditions: melanoma, 6-day
Experimental: as §1

Kidney cancer cell lines = conditions: percent of cell lines, 10 cell lines
Experimental: as §1

TF-1 = conditions: TF-1, AML subtype M6, 6-day
Experimental: as §1

[2] = system: 196 human cancer cell lines (Total); conditions: percent of cell lines, 196 cell lines
Experimental: as §1

SK-NEP-1 = conditions: SK-NEP-1, Wilm's, 6-day
Experimental: as §1

HL-60 = conditions: HL-60, AML subtype M3, 6-day
Experimental: as §1

SHI-1 = conditions: SHI-1, AML subtype M5, 6-day
Experimental: as §1

G-402 = conditions: G-402, Leiomyoblastoma, 6-day
Experimental: as §1

SK-MEL-5 = conditions: SK-MEL-5, melanoma, 6-day
Experimental: as §1

KASUMI- = conditions: AML subtype M2, 6-day
Experimental: as §1

SKM-1 = conditions: SKM-1, AML subtype M5, 6-day
Experimental: as §1

MV-4-11 = conditions: MV-4-11, AML subtype M5, 6-day
Experimental: as §1

MOLM-16 = conditions: MOLM-16, AML subtype M0, 6-day
Experimental: as §1

[3] = system: Prostate cancer cell lines; conditions: 4 cell lines
Experimental: as §1

CAKI-2 = conditions: CAKI-2, ccRCC, 6-day
Experimental: as §1

G-401 = conditions: G-401, Wilm's, 6-day
Experimental: as §1

CAKI-1 = conditions: CAKI-1, ccRCC, 6-day
Experimental: as §1

IGR-1 = conditions: IGR-1, melanoma, 6-day
Experimental: as §1

A375 = conditions: A375, melanoma, 6-day
Experimental: as §1

786-O = conditions: ccRCC, 6-day
Experimental: as §1

NSCLC cell lines = conditions: percent of cell lines, 25 cell lines
Experimental: as §1

769-P = conditions: ccRCC, 6-day
Experimental: as §1

OCI- = conditions: AML subtype M4, 6-day
Experimental: as §1

ACHN = conditions: ccRCC, 6-day
Experimental: as §1

PRMT4 = PRMT4 (Homo sapiens, UniProt Q86X55); experiment: PRMT family radioactive assay; format: biochemical
Sequence of PRMT4 (Q86X55 whole entry): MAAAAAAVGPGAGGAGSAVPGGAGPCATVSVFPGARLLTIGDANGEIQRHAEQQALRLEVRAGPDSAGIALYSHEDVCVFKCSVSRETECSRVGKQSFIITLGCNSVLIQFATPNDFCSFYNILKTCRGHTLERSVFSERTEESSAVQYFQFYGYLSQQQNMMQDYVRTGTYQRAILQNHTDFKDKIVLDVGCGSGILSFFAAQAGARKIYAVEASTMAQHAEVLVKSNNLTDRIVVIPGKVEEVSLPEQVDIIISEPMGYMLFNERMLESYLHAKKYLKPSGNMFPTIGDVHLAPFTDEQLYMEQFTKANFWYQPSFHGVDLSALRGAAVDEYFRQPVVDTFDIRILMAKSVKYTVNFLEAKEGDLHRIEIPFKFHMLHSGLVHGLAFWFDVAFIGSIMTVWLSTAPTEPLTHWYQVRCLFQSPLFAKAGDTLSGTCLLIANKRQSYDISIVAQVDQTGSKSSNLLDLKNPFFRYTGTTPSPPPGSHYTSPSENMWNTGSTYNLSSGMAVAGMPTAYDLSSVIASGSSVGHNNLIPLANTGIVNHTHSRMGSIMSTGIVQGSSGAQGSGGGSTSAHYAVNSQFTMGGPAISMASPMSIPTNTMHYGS

[4] = 60 minute SAM:Enzyme:Compound A preincubation

Sequence of PRMT6 (Q96LA8 whole entry): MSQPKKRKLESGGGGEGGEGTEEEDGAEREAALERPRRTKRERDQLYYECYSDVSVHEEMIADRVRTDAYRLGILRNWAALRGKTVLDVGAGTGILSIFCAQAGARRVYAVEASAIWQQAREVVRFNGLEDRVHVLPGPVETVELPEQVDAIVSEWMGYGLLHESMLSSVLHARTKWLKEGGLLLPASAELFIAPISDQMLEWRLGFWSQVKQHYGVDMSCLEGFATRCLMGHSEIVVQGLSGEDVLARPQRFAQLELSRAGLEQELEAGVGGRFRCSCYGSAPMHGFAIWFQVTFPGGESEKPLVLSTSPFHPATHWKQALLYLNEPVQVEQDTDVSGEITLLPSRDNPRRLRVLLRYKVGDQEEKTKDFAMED

Compound: CCOCC1(COCC)CCC(c2n[nH]cc2CN(C)CCNC)CC1 [Compound A]
- inhibition of activity (PRMT6; [4]): inhibited the activity
- time dependence of inhibition (PRMT6; increasing preincubation times): time dependent inhibitor
- time to maximal decrease of 45 kDa ADMA band [1]: 72 to 96 h
- time to near maximal increase in MMA [1]: ≤ 48 h
- change in ADMA methylation ([1]; up to 120 hours): decreased
- change in MMA ([1]; up to 120 hours): increased
- change in SDMA ([1]; up to 120 hours): increase
- gIC100 (MOLM-13): 8.64 ± 0.39 µM
- Ymin − T0 (MOLM-13; negative = cell death): −100.0
- Ymin − T0 (MDA-MB-): 19.1
- gIC100 (MDA-MB-): 29.33 ± 0.00 µM
- % Cytotoxic (Kidney cancer cell lines): 0%
- % gIC100 < 2 (Kidney cancer cell lines): 0%
- gIC100 (TF-1): 29.33 ± 0.00 µM
- Ymin − T0 (TF-1; negative = cell death): 788.1
- % gIC100 < 2 [2]: 4%
- Ymin − T0 (SK-NEP-1): 25.3
- gIC100 (HL-60): 6.38 ± 12.83 µM
- Ymin − T0 (HL-60; negative = cell death): −33.4
- gIC100 (SHI-1): 29.33 ± 0.02 µM
- Ymin − T0 (SHI-1; negative = cell death): 292.0
- Ymin − T0 (G-402): 92.6
- Ymin − T0 (SK-MEL-5): 31.8
- gIC100 (SK-MEL-5): 27.09 ± 3.92 µM
- gIC100 (KASUMI-): 18.88 ± 10.55 µM
- Ymin − T0 (KASUMI-; negative = cell death): −17.7
- gIC100 (SKM-1): 11.61 ± 5.52 µM
- Ymin − T0 (SKM-1; negative = cell death): −19.1
- gIC100 (MV-4-11): 14.55 ± 4.27 µM
- Ymin − T0 (MV-4-11; negative = cell death): 565.6
- gIC100 (MOLM-16): 9.69 ± 10.58 µM
- Ymin − T0 (MOLM-16; negative = cell death): −68.6
- Median gIC100 ([3]; 6-day proliferation): 29.34 µM
- % Cytotoxic ([3]; percent of cell lines): 0%
- % gIC100 < 2 ([3]; percent of cell lines): 0%
- Ymin − T0 (CAKI-2): 169.6
- Ymin − T0 (G-401): 353.7
- Ymin − T0 (CAKI-1): 178.7
- Ymin − T0 (IGR-1): 507.0
- gIC100 (IGR-1): 29.33 ± 0.00 µM
- Ymin − T0 (A375): 91.9
- gIC100 (A375): 29.33 ± 0.00 µM
- Ymin − T0 (786-O): 643.7
- % Cytotoxic (NSCLC cell lines): 16%
- % gIC100 < 2 (NSCLC cell lines): 0%
- Ymin − T0 (769-P): 119.0
- gIC100 (OCI-): 29.33 ± 0.00 µM
- Ymin − T0 (OCI-; negative = cell death): 523.2
- Ymin − T0 (ACHN): 96.5
- inhibition of activity (PRMT4; [4]): inhibited the activity
- time dependence of inhibition (PRMT4; increasing preincubation times): time dependent inhibitor
